According to patent US4902791A, “Nitrosourea derivatives, process for their preparation and medicaments containing them” (Sanofi S.A., priority 1983, dated 1990):

Columns and labels:
[1] = toxicological study, lethal doses (Table IA); conditions: mouse, in vivo
From the text: The results relating to toxicology are brought together in Table IA below:

L1210 U.S.A. strain = assay: antitumor activity on leukemia L1210 U.S.A., compounds of formula IA, I.P.; format: in vivo, mouse
Description: On the day of the graft (by convention day 0=DO) an inoculum of 1×10^5 tumor cells in a volume of 0.2 ml is administered to each mouse by the intraperitoneal route (I.P.).
(§1) This inoculum is prepared by diluting ascites fluid taken from the peritoneum of a donor female mouse in NCTC 109 medium (Eurobio Laboratories Paris, France), counting of the cells in a MALASSEZ cell under a microscope and adjustment of the concentration to 5×10^5cells per ml.
After the tumor graft has been made, the mice are distributed at random in cages of 5 animals. Subsequently, these cages containing 5 mice are themselves distributed at random into a control group (control) and groups treated with the products of the invention.
(§2) The doses of the products of the invention used in the different experiments are expressed in milligrams per kilogram of body weight.
(§3) The products to be injected were dissolved in isotonic sodium chloride solution.
Two protocols for treatment were used in the different experiments:
(§4) or 3 I.P. injections on D1, D5, D9.
(§5) In each experiment the animals of the control group received 1 or more injections, depending on the experimental protocol used, by the same route (I.P. or I.V.) of the same volume (0.2 ml/20 g) of the vehicle not containing the active principle (isotonic sodium chloride solution).
(§6) the number and percentage of the total of the mice surviving to D60,
(§7) the T/C×100 for treated groups.
(§8) T representing the mean survival time of the mice in the treated group
(§9) C representing the mean survival time of the mice in the control group (control).

melanoma B16 [2] = assay: antitumor activity on melanoma B16, compounds of formula IA, I.P.; format: in vivo, mouse; conditions: B6 D2 F1, I.P. D1, D5, D9, 3×10 mg/kg
Description: The experiments were always carried out on SPF female mice B6 D2 F1/JIco (first generation hybrids between the lines C5BL/6 and DBA/2).
(§10) On the day of the graft (Day 0) an inoculum of 2×10^6 tumor cells in a volume of 0.5 ml is administered to each mouse by the intraperitoneal route (I.P.). This inoculum is prepared from a sub-cutaneous tumor excised from a donor female mouse. After excision the tumor is fragmented by means of a pair of scissors in the NCTC 109 medium. After filtration through sterile gauze in order to remove large cellular fragments, the homogeneous cell suspension obtained is counted by means of a MALASSEZ cell and diluted to the desired concentration (4×10^6 tumor cells per ml) by dilution with the NCTC 109 medium.
This was performed in the manner described previously for the leukemia L1210.
as §2, §3, §4, §5, §6, §7, §8, §9

melanoma B16 [3] = assay: activity toward melanoma B16 implanted subcutaneously, I.V. route; format: in vivo, mouse
Description: The activity of the substances of the invention was also tested by administering the said substances of the invention by the I.V. route. 0.5 ml of an homogenate of the tumor (1 g/10 ml) is administered to B6C3F1 female mice by the subcutaneous (S.C. route) on day 0. The products of the invention and the substances used for comparison are administered on days 3, 7 and 11 in isotonic solution.
In Table IIA below the results are presented relating to the activity of the substance CI. 1675 administered by the I.V. route on the growth of the melanoma B16 implanted subcutaneously, in comparison with carmustine BCNU marketed under the name of BiCNU®.
In Table IIA below and in the subsequent tables, T represents the mean weight (or median) of the tumors in the treated mice, C represents the mean weight (or median) of the tumors in the control, untreated mice and the ratio T/C% corresponds to T/C×100.

colon carcinoma C38 [4] = assay: activity on colon carcinoma C38 implanted subcutaneously, I.P. days 2 and 9; format: in vivo, mouse
Description: A tumor fragment is implanted on day 0 in female B6 D2 F1 mice (19-22 g). The treatment with all of the products is administered by the I.P. route on days 2 and 9 (which is a delayed treatment). The weight of the tumors is calculated on day 20.

colon carcinoma C38 [5] = assay: colon carcinoma C38, comparison of I.V. and I.P. routes, treatment days 8, 12, 16; format: in vivo, mouse; parameters: key to Median wt. of the tumor D20 / Median wt. of the tumor D27: median tumor weight in mg
Description: With a view to verifying the antitumor activity of the product of the invention CI.1671 when it is administered by the I.V. route, another experiment was performed in which this product was administered by the I.P. route and the I.V. route for the purposes of comparison.
This experiment is carried out under particularly difficult conditions, the first day of the treatment corresponding to the eighth day after the implantation of the carcinoma C38, whereas normally the treatment starts on the day of implantation of the tumor (D0) or 1 day after (D1) the implantation of the tumor.
The median weight of the tumors on the first day of treatment (day 8) is about 12 mg (tumors varying from 8 to 40 mg). The animals are treated on days 8, 12 and 16 depending on the different routes indicated. […]

L1210 U.S.A. = assay: antitumor activity on leukemia L1210 U.S.A., products of examples 33-39, I.P.; format: in vivo, mouse
Description: The experiments were always carried out on female mice which were specific pathogen-free (S. P. F.),
either of the line DBA/2JIco
or of the line B6 D2 F1/JIco (first generation hybrids between the lines C57BL/6 and DBA/2).
On the day of the graft (by convention day 0=D0) an inoculum of 1×10^5 tumor cells in a volume of 0.2 ml is administered to each mouse by the intraperitoneal route (I.P.).
as §1, with “Laboratories,” for “Laboratories”, “[…] by means of the same medium.” for “ml.”
The tumor line is an American strain of the line L1210.
After the tumor graft, the mice are distributed at random in cages of 5 animals. Subsequently, these cages containing 5 mice are themselves distributed at random into a control group (control) and groups treated with the I.C. products.
as §2, §3
2 protocols for treatment were used in the different experiments:
either a single injection on D1, by the intraperitoneal (I.P.) or intravenous (I.V.) route,
as §4
(§11) In each experiment the animals of the control group received 1 or more injections, depending on the experimental protocol used, by the same route (I.P. or I.V.) of the same volume (0.2 ml/20 g) of the vehicle without the active principle (isotonic sodium chloride solution).
as §6
(§12) the T/C×100 for the treated groups.
(§13) T representing the mean survival time of the mice in the treated group,
(§14) C representing the mean survival time of the mice in the control group (controls).

melanoma B16 [6] = assay: antitumor activity on melanoma B16, products of examples 33-39, I.P.; format: in vivo, mouse; conditions: B6 D2 F1, I.P. D1, D5, D9, 3×10 mg/kg
Description: The experiments are always carried out on SPF female mice, B6 D2 F1/JIco (first generation hybrids between the lines C57BL/6 and DBA/2).
as §10, with “(day 0),” for “(Day 0)”, “(4×10^6tumor” for “(4×10^6 tumor”
This was performed in the manner described for the leukemia L1210 (see above).
as §2, §3, §4, §11, §6, §12, §13, §14

[7] = toxicological results, single I.P. dose, DL0 and DL50; format: in vivo, mouse; conditions: mice
From the text: DL0, DL50, single I.P. dose administered to the aforementioned strains of mice.

[8] = B6 D2 F1, I.P. D1, D5, D9, 3×1.25 mg/kg
[9] = B6 D2 F1, I.P. D1, D5, D9, 3×5 mg/kg
[10] = I.P., 10 mg/kg/inj. days 2 and 9
[11] = I.P., 20 mg/kg/inj. days 2 and 9
[12] = I.P., 30 mg/kg/inj. days 2 and 9
[13] = B6 D2 F1, I.P. D1, D5, D9, 3×10 mg/kg
[14] = DBA2, I.P. D1, D5, D9, 3×5 mg/kg

## CO[C@@H]1O[C@H](COC(=O)c2ccccc2)C[C@H](NC(=O)N(CCCl)N=O)[C@H]1O [CI. 1674, methyl 3-[3-(2-chloroethyl)-3 nitrosoureido] 6-benzoyl 3,4-dideoxy-β-D-xylo-hexopyranoside]
[1]
  LD0: ≥ 40 mg/kg
L1210 U.S.A. strain; [8]
  Number of survivors at D60: 0/10
  T/C: 111
L1210 U.S.A. strain; [9]
  Number of survivors at D60: 0/10
  T/C: 130

## CO[C@@H]1O[C@H](CO)C[C@H](NC(=O)N(CCCl)N=O)[C@H]1O [CI. 1675, methyl 3-[3-(2-chloroethyl) 3-nitrosoureido] 3,4-dideoxy-β-D-xylo-hexopyranoside]
[1]
  LD0: ≥ 20 mg/kg
  LD50: ~40 mg/kg
L1210 U.S.A. strain; [8]
  Number of survivors at D60: 0/10
  T/C: 164
L1210 U.S.A. strain; [9]
  Number of survivors at D60: 5/10
  T/C: > 600
Melanoma B16 [2]
  Number of survivors at D60: 8/10
  T/C: 258
Melanoma B16 [3]; 10 mg/kg/inj. days 3, 7, 11
  Median weight of the tumor on day 3: 32,0 mg
  Median weight of the tumor on day 30: 2 025 mg
  T/C on day 30 (tumor weight): 25,9%
Melanoma B16 [3]; 15 mg/kg/inj. days 3, 7, 11
  Median weight of the tumor on day 3: 23,0 mg
  Median weight of the tumor on day 30: 1 044 mg
  T/C on day 30 (tumor weight): 13,4%
Melanoma B16 [3]; 20 mg/kg/inj. days 3, 7, 11
  Median weight of the tumor on day 3: 36,0 mg
  Median weight of the tumor on day 30: 688 mg
  T/C on day 30 (tumor weight): 8,8%
Colon carcinoma C38 [4]; I.P. route, delayed treatment
  efficacy against the colon carcinoma C38: considerable efficacy
Colon carcinoma C38 [4]; [10]
  Number of mice without tumor/total: 1/10
  T/C: 67%
  Weight of the tumor on day 20: 272 mg
Colon carcinoma C38 [4]; [11]
  Number of mice without tumor/total: 7/9
  T/C: 0%
  Weight of the tumor on day 20: 0 mg
Colon carcinoma C38 [4]; [12]
  Number of mice without tumor/total: 7/7
  T/C: 0%
  Weight of the tumor on day 20: 0 mg
  dead mice (remarks): 5
Colon carcinoma C38 [5]; I.P. Route, 10 mg/kg/inj.
  Median wt. of the tumor D20: 324
  Median wt. of the tumor D27: 1099
  Mice without tumor/total D20: 0
  Mice without tumor/total D27: 0
  T/C % D20: 57%
  T/C % D27: 84%
Colon carcinoma C38 [5]; I.P. Route, 15 mg/kg/inj.
  Median wt. of the tumor D20: 88
  Median wt. of the tumor D27: 726
  Mice without tumor/total D20: 0
  Mice without tumor/total D27: 0
  T/C % D20: 15%
  T/C % D27: 56%
Colon carcinoma C38 [5]; I.P. Route, 20 mg/kg/inj.
  Median wt. of the tumor D20: 13
  Median wt. of the tumor D27: 172
  Mice without tumor/total D20: 1/8
  Mice without tumor/total D27: 2/8
  T/C % D20: 2%
  T/C % D27: 13%
Colon carcinoma C38 [5]; I.V. Route, 10 mg/kg/inj.
  Median wt. of the tumor D20: 23
  Median wt. of the tumor D27: 352
  Mice without tumor/total D20: 0/8
  Mice without tumor/total D27: 0/8
  T/C % D20: 4%
  T/C % D27: 27%
Colon carcinoma C38 [5]; I.V. Route, 15 mg/kg/inj.
  Median wt. of the tumor D20: 0
  Median wt. of the tumor D27: 0
  Mice without tumor/total D20: 7/8
  Mice without tumor/total D27: 7/7
  T/C % D20: 0%
  T/C % D27: 0%
Colon carcinoma C38 [5]; I.V. Route, 20 mg/kg/inj.
  Median wt. of the tumor D20: 0
  Median wt. of the tumor D27: 0
  Mice without tumor/total D20: 6/8
  Mice without tumor/total D27: 6/6
  T/C % D20: 0%
  T/C % D27: 0%

## CO[C@H]1O[C@H](CO)[C@H](Cl)[C@H](NC(=O)N(CCCl)N=O)[C@H]1O [CI. 1676, methyl 4-chloro 3-[3-(2-chloro-ethyl) 3-nitrosoureido] 3,4-dideoxy-α-D-galacto-hexopyranoside]
[1]
  LD0: ≥ 20 mg/kg
L1210 U.S.A. strain; [8]
  Number of survivors at D60: 0/10
  T/C: 136
L1210 U.S.A. strain; [9]
  Number of survivors at D60: 0/10
  T/C: 188
Melanoma B16 [2]
  Number of survivors at D60: 3/10
  T/C: 202

## CO[C@H]1O[C@H](CO)C[C@H](NC(=O)N(CCCl)N=O)[C@H]1O [CI. 1677, methyl 3-[3-(2-chloroethyl) 3-nitroso-ureido] 3,4-dideoxy-α-D-xylo-hexopyranoside]
[1]
  LD90: ≤ 20 mg/kg
L1210 U.S.A. strain; [8]
  Number of survivors at D60: 0/10
  T/C: 157
L1210 U.S.A. strain; [9]
  Number of survivors at D60: 6/10
  T/C: > 600
Melanoma B16 [2]
  Number of survivors at D60: 7/10
  T/C: 257

## CO[C@@H]1O[C@H](C)C[C@H](NC(=O)N(CCCl)N=O)[C@H]1O [IC. 85-1591, methyl 3-[3-(2-chloroethyl) 3-nitrosoureido] 3,4,6-trideoxyβ-D-xylo-hexopyranoside]
L1210 U.S.A.; [8]
  Number of survivors: 0/10
  T/C: 116
L1210 U.S.A.; [9]
  Number of survivors: 2/10
  T/C: 217
L1210 U.S.A.; [13]
  Number of survivors on D60: 8/10
  T/C: 600
L1210 U.S.A.; DBA2, I.P. D1, 1×20 mg/kg
  Number of survivors on D60: 7/10
  T/C: > 600
L1210 U.S.A.; [14]
  Number of survivors on D60: 6/10
  T/C: > 600
Melanoma B16 [6]
  Number of survivors: 3/10
  T/C: 194
[7]
  DL0: ≥ 20 mg/kg
[7]; mouse, in vivo, ip
  LD50: ~40 mg/kg
